T/C data for 27 compounds are collected here from PubChem BioAssay AID256 (DTP/NCI, 2004).

Structures are written as SMILES. Inconclusive results and toxic doses are left out.

The test system of this experiment is CD2F1 mice, L1210 leukemia ip, survival T/C. The experiment is described as follows: NCI In Vivo Anticancer Drug Screen. Data for tumor model L1210 Leukemia (intraperitoneal) in CD2F1 (CDF1) mice. As to conditions: endpoint: mean survival time, higher = longer survival. Put shortly:
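Compound-dosed mice with transplantable tumor versus matched vehicle controls; endpoint ratio T/C reported.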

Setting [1] is: dose: 100.0 mg/kg/injection, schedule: Q01DX001 (ip), vehicle: saline with Tween-80.
Where [2] appears, read: dose: 200.0 mg/kg/injection, schedule: Q01DX001 (ip), vehicle: saline with Tween-80.
Where [3] appears, read: dose: 400.0 mg/kg/injection, schedule: Q01DX001 (ip), vehicle: saline with Tween-80.
Where [4] appears, read: dose: 100.0 mg/kg/injection, schedule: Q04DX003 (ip), vehicle: saline with Tween-80.
[5] abbreviates: dose: 200.0 mg/kg/injection, schedule: Q04DX003 (ip), vehicle: saline with Tween-80.
[6] abbreviates: dose: 400.0 mg/kg/injection, schedule: Q04DX003 (ip), vehicle: saline with Tween-80.
The mark [7] stands for this setting: dose: 100.0 mg/kg/injection, schedule: Q01DX009 (ip), vehicle: saline with Tween-80.
The mark [8] stands for this setting: dose: 200.0 mg/kg/injection, schedule: Q01DX009 (ip), vehicle: saline with Tween-80.
[9] abbreviates: dose: 400.0 mg/kg/injection, schedule: Q01DX009 (ip), vehicle: saline with Tween-80.
Setting [10] is: dose: 100.0 mg/kg/injection, schedule: Q04DX003 (ip), vehicle: saline.
The mark [11] stands for this setting: dose: 5.0 mg/kg/injection, schedule: Q01DX009 (ip), vehicle: saline with Tween-80.
[12] abbreviates: dose: 10.0 mg/kg/injection, schedule: Q01DX009 (ip), vehicle: saline with Tween-80.
[13] abbreviates: dose: 20.0 mg/kg/injection, schedule: Q01DX009 (ip), vehicle: saline with Tween-80.

Regarding `O=C1c2ccccc2C(=O)c2c(NC3CCCCC3)ccc(Nc3ccc(S(=O)(=O)O)cc3)c21`, the T/C is 100 % of control (dose: 75.0 mg/kg/injection, schedule: Q01DX001 (ip), vehicle: saline); 100 % of control (dose: 150.0 mg/kg/injection, schedule: Q01DX001 (ip), vehicle: saline); 103 % of control (dose: 300.0 mg/kg/injection, schedule: Q01DX001 (ip), vehicle: saline).

With `Cc1ccc(CCOS(=O)(=O)c2ccc(C)cc2)cc1`, the T/C was 97 % of control under setting [1], 95 % of control under setting [2] and 95 % of control under setting [3].

For `CCc1c(Cl)c(C)c(Cl)c(O)c1Cl`, the T/C is, setting by setting: under setting [4], 96 % of control; under setting [5], 88 % of control.

Turning to `O=[N+]([O-])/C=C\c1ccccc1`, the T/C is, setting by setting: under setting [4], 96 % of control; under setting [5], 90 % of control; under setting [6], 86 % of control.

For `COc1cc(/C=N\N=C\c2ccc(O)c(OC)c2)ccc1O`, the T/C is 98 % of control under setting [7] and 96 % of control under setting [8].

For `C1CCC(N(C2CCCCC2)C2CCCCC2)CC1`, the T/C is 107 % of control under setting [1]; 104 % of control under setting [2]; 96 % of control (dose: 300.0 mg/kg/injection, schedule: Q01DX001 (ip), vehicle: saline with Tween-80).

With `COc1cc(/C=N\NC(=O)CC#N)cc(OC)c1OC`, the T/C by setting is: under setting [4], 94 % of control; under setting [5], 98 % of control.

For the compound `Nc1ccn([C@H]2C[C@@H](CO)[C@H](O)[C@@H]2O)c(=O)n1`, the T/C by setting is: (dose: 22.0 mg/kg/injection, schedule: Q03HX024 (ip), vehicle: saline) 159 % of control; (dose: 33.0 mg/kg/injection, schedule: Q03HX024 (ip), vehicle: saline) 164 % of control; (dose: 50.0 mg/kg/injection, schedule: Q03HX024 (ip), vehicle: saline) 169 % of control; (dose: 75.0 mg/kg/injection, schedule: Q04HX024 (ip), vehicle: saline) 176 % of control; (dose: 100.0 mg/kg/injection, schedule: Q04HX024 (ip), vehicle: saline) 177 % of control; (dose: 150.0 mg/kg/injection, schedule: Q01DX009 (ip), vehicle: saline) 150 % of control. Also, the T/C was 182 % of control (dose: 200.0 mg/kg/injection, schedule: Q01DX009 (ip), vehicle: saline) and 166 % of control (dose: 450.0 mg/kg/injection, schedule: Q01DX009 (ip), vehicle: saline).

For `COc1cc2c(cc1OC)C1CCN3C(=O)CCC3N1CC2` (configuration not stated), the T/C by setting is: under setting [4], 102 % of control; under setting [5], 102 % of control; under setting [6], 108 % of control.

For the compound `COc1cc(-c2[nH]c(=S)[nH]c(=O)c2CCO)cc(OC)c1OC`, the T/C by setting is: under setting [4], 98 % of control; under setting [5], 98 % of control; under setting [6], 91 % of control.

On to `CCCCC(CCC)OC(=O)Nc1cccc2ccccc12` (configuration not stated), for which the T/C reads like this: under setting [1], 93 % of control; under setting [2], 93 % of control; under setting [3], 93 % of control.

`O=C(O)c1cccc(Cl)n1`: the T/C reads like this: under setting [7], 97 % of control; under setting [8], 97 % of control; under setting [9], 88 % of control.

In the case of `CSc1cc(C)c(O)c(C)c1`, the T/C by setting is: under setting [4], 100 % of control; under setting [5], 104 % of control; under setting [6], 102 % of control.

For the compound `CN(C)C1CC[N-]CC1.CN(C)C1CC[N-]CC1.[Cl][Pt+2][Cl]`, the T/C by setting is: (dose: 25.0 mg/kg/injection, schedule: Q04DX003 (ip), vehicle: saline) 103 % of control; (dose: 50.0 mg/kg/injection, schedule: Q04DX003 (ip), vehicle: saline) 109 % of control; under setting [10], 114 % of control.

Regarding `Cc1ccc(S(=O)(=O)CC(=O)N2CCOCC2)cc1`, the T/C under setting [10] was 102 % of control; the T/C (dose: 200.0 mg/kg/injection, schedule: Q04DX003 (ip), vehicle: saline) is 96 % of control; the T/C (dose: 400.0 mg/kg/injection, schedule: Q04DX003 (ip), vehicle: saline) was 98 % of control.

For `O=S(=O)(N1CCCCC1)N1CCNCC1`, the T/C runs as follows: under setting [11], 98 % of control; (dose: 5.0 mg/kg/injection, schedule: Q04DX003 (ip), vehicle: saline with Tween-80) 103 % of control; under setting [12], 98 % of control; (dose: 10.0 mg/kg/injection, schedule: Q04DX003 (ip), vehicle: saline with Tween-80) 103 % of control; under setting [13], 96 % of control; (dose: 20.0 mg/kg/injection, schedule: Q04DX003 (ip), vehicle: saline with Tween-80) 97 % of control.

For `OCCc1cc[nH]c1`, the T/C under setting [7] was 104 % of control; the T/C under setting [4] is 95 % of control; the T/C under setting [8] was 101 % of control; the T/C under setting [5] was 97 % of control; the T/C under setting [9] is 113 % of control; the T/C under setting [6] was 97 % of control.

For `COc1ccccc1NC(=O)NCCN(C)c1ccccc1`, the T/C runs as follows: (dose: 100.0 mg/kg/injection, schedule: Q04DX002 (ip), vehicle: saline with Tween-80) 88 % of control; (dose: 200.0 mg/kg/injection, schedule: Q04DX002 (ip), vehicle: saline with Tween-80) 88 % of control.

Regarding `O=C(/C=C(\CN1CCCCC1)c1ccccc1)c1ccccc1`, the T/C is 95 % of control (dose: 25.0 mg/kg/injection, schedule: Q01DX009 (ip), vehicle: Klucel (hydroxypropylcellulose) (HPC)); 105 % of control (dose: 50.0 mg/kg/injection, schedule: Q01DX009 (ip), vehicle: Klucel (hydroxypropylcellulose) (HPC)); 94 % of control (dose: 100.0 mg/kg/injection, schedule: Q01DX009 (ip), vehicle: Klucel (hydroxypropylcellulose) (HPC)).

As to `CCC(=O)c1ccccc1N`, the T/C runs as follows: under setting [4], 90 % of control; under setting [5], 105 % of control; under setting [6], 97 % of control.

Turning to `O=[N+]([O-])c1cc([N+](=O)[O-])c(Cl)s1`, the T/C runs as follows: (dose: 12.5 mg/kg/injection, schedule: Q04DX003 (ip), vehicle: saline with Tween-80) 92 % of control; (dose: 25.0 mg/kg/injection, schedule: Q04DX003 (ip), vehicle: saline with Tween-80) 91 % of control; (dose: 50.0 mg/kg/injection, schedule: Q04DX003 (ip), vehicle: saline with Tween-80) 88 % of control.

`O=C(Nc1ccccc1[N+](=O)[O-])c1ccccc1`: the T/C reads like this: under setting [1], 97 % of control; under setting [4], 102 % of control; under setting [2], 100 % of control; under setting [5], 105 % of control; under setting [3], 95 % of control; under setting [6], 97 % of control.

`ClC(Cl)(Cl)c1ccc(C(SCc2ccccc2)SCc2ccccc2)cc1`: the T/C reads like this: under setting [1], 89 % of control; under setting [2], 89 % of control; under setting [3], 97 % of control.

Take `O=C(CC([Se]c1ccccc1)c1ccccc1)c1ccccc1` (configuration not stated): the T/C runs as follows: (dose: 50.0 mg/kg/injection, schedule: Q01DX009 (ip), vehicle: saline sonified) 102 % of control; (dose: 100.0 mg/kg/injection, schedule: Q01DX009 (ip), vehicle: saline sonified) 102 % of control; under setting [4], 105 % of control; (dose: 200.0 mg/kg/injection, schedule: Q01DX009 (ip), vehicle: saline sonified) 105 % of control; under setting [5], 104 % of control.

Take `COc1ccc(C=NC2C(OC(C)=O)OC(COC(C)=O)C(OC(C)=O)C2OC(C)=O)cc1` (configuration not stated): the T/C is 96 % of control (dose: 6.25 mg/kg/injection, schedule: Q01DX009 (ip), vehicle: other); 96 % of control (dose: 12.5 mg/kg/injection, schedule: Q01DX009 (ip), vehicle: other); 93 % of control (dose: 25.0 mg/kg/injection, schedule: Q01DX009 (ip), vehicle: other); 94 % of control (dose: 50.0 mg/kg/injection, schedule: Q01DX009 (ip), vehicle: other); 96 % of control (dose: 100.0 mg/kg/injection, schedule: Q01DX009 (ip), vehicle: other).

As to `CCCCCCCCCC1=NC(C)(C)CN1c1ccccc1`, the T/C is, setting by setting: under setting [11], 98 % of control; under setting [12], 102 % of control; under setting [13], 106 % of control.

For the compound `CCc1c(C)c(C)cc(S(=O)(=O)O)c1C`, the T/C (dose: 50.0 mg/kg/injection, schedule: Q01DX009 (ip), vehicle: saline with Tween-80) was 104 % of control; the T/C under setting [7] is 93 % of control; the T/C under setting [4] is 101 % of control; the T/C under setting [8] is 89 % of control; the T/C under setting [5] was 87 % of control.
